Measurements from patent US20240317712A1, “[…] DERIVATIVES AS INHIBITORS OF […]-PEPTIDE CYCLOTRANSFERASE AND […]-PEPTIDE CYCLOTRANSFERASE LIKE PROTEIN” (Boehringer Ingelheim International GmbH, priority 2023, published 2024).

Experiments:
QPCTL = target: T1, QPCTL (Homo sapiens, UniProt Q9NXS2); experiment: Assay A: biochemical QPCTL activity assay (MALDI-TOF MS, CD47 peptide substrate); conditions: 0.5 nM enzyme, 10 μM CD47 peptide substrate; read-out: Inhibition of QPCTL: IC50
T1 construct: made in house
Description: (§1) QPCT or QPCTL dependent conversion of N-terminal glutamine to pyroglutamate of CD47 was monitored via MALDI-TOF MS. Test compounds were dissolved in 100% DMSO and serially diluted into clear 1,536-well microtiter plates. Enzymatic reactions were set up in assay buffer containing 20 mM Tris pH 7.5, 0.1 mM TCEP, 0.01% BSA, and 0.001% Tween20. […] The plates were incubated for 10 min in a humidified incubator at 24° C. Subsequently, 2.5 µL of CD47 peptide substrate surrogate (^19[…]^33) was added to each well (final concentration: 10 μM for QPCTL/20 μM for QPCT). The plates were mixed for 30 sec at 1,000 rpm and subsequently incubated for 40 min in a humidified incubator at 24° C. […] The plates were sealed with an adhesive foil, mixed for 30 s at 1,000 rpm and stored at room temperature until preparation of the MALDI target plates. MALDI target plates were prepared as described previously. […] QPCT or QPCTL activity was monitored by calculating the ratio between product and internal standard signals followed by normalization to high (100% activity) and low (0% activity) controls. Determination of compound potencies was obtained by fitting the dose-response data to a four-parameter logistical equation.

[1] = Assay C: Permeability in CACO-2 cells; format: in vitro ADME; conditions: human, pH 7.2; for efflux ratio: Caco-2, permeability B−A/permeability A−B; for Papp A→B: Caco-2, apical to basolateral
Description: Caco-2 cells (1-2×10^5 cells/1 cm^2 area) are seeded on filter inserts (Costar transwell polycarbonate or PET filters, 0.4 μm pore size) and cultured (DMEM) for 10 to 25 days. Compounds are dissolved in appropriate solvent (like DMSO, 1-20 mM stock solutions). […] The transport solution (TL) is applied to the apical or basolateral donor side for measuring A-B or B-A permeability (3 filter replicates), respectively. Samples are collected at the start and end of experiment from the donor and at various time intervals for up to 2 hours also from the receiver side for concentration measurement by HPLC-MS/MS or scintillation counting. Sampled receiver volumes are replaced with fresh receiver solution.
Efflux ratio (ER)=permeability B−A/permeability A−B

[2] = system: SIRPα signalling induced by Raji cells; experiment: Assay B: SIRPα signalling assay using Raji cells; format: cell-based; conditions: Homo sapiens, 48 h compound incubation, Jurkat PathHunter SIRPaV1 reporter cells, read-out: Inhibition of SIRPα signalling induced by Raji cells: IC50
Description: (§2) Two cell types are independently used: the Raji cell line (lymphoblast-like human cell line derived from B lymphocytes from a Burkitt's lymphoma patient in 1963) and A549 cells (adenocarcinoma human alveolar basal epithelial cells).
(§3) Test compounds were dissolved in 100% DMSO and serially diluted into a white 384-well microtiter cell culture plate (PerkinElmer #60076780 in case of Raji assay; PDL-coated plates Greiner #781945 in case of A549 assay), 5000 Raji cells (ATCC #CC86) or 5000 A549 cells (ATCC #CCL-185) in Assay Complete Cell Plating reagent 30 (DiscoverX 93-0563R30B) were added per well. The assay plate was incubated for 48 h at 37° C., 95% humidity and 5% CO2. 15000 reporter cells (Jurkat PathHunter SIRPaV1, DiscoverX #93-1135C19) were added to each well, and the plate was incubated for 5 h at 37° C., 95% humidity and 5% CO2. Bioassay reagent 1 of the PathHunter Bioassay detection kit (DiscoverX 93-0001) was added to each well of the plate using a multichannel pipette followed by a 15 min incubation at room temperature. Afterwards bioassay reagent 2 was added followed by 60 min incubation at room temperature (incubation in the dark). The analysis of the data was performed using the luminescence signal generated by beta-galactosidase in the PathHunter reporter cell line. The luminescence measurement was done using a Pherastar Multi-Mode Reader. Dose-response curves & IC50 data were calculated with 4-parameter sigmoidal dose response formula.

QPCT = target: T2, QPCT (Homo sapiens, UniProt Q16769); experiment: Assay A: biochemical QPCT activity assay (MALDI-TOF MS, CD47 peptide substrate); conditions: 0.5 nM enzyme, 20 μM CD47 peptide substrate; read-out: Inhibition of QPCT: IC50
T2 construct: purchased Origine (so in the source)
Description: as §1

[3] = system: SIRPα signalling induced by A549 cells; experiment: Assay B: SIRPα signalling assay using A549 cells; format: cell-based; conditions: Homo sapiens, 48 h compound incubation, Jurkat PathHunter SIRPaV1 reporter cells, read-out: Inhibition of SIRPα signalling induced by A549 cells: IC50
Description: as §2, §3

T1 sequence (Q9NXS2 whole entry): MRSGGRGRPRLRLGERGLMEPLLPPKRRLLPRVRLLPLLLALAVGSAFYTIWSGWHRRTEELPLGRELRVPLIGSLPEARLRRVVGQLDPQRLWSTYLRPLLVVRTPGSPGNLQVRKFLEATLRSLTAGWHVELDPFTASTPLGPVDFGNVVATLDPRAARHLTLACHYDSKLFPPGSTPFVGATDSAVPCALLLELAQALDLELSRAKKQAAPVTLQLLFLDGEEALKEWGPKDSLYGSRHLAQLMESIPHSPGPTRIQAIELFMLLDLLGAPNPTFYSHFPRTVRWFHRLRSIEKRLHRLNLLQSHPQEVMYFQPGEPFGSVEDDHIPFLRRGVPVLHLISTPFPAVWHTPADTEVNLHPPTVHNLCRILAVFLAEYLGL
T2 sequence (Q16769 29-361): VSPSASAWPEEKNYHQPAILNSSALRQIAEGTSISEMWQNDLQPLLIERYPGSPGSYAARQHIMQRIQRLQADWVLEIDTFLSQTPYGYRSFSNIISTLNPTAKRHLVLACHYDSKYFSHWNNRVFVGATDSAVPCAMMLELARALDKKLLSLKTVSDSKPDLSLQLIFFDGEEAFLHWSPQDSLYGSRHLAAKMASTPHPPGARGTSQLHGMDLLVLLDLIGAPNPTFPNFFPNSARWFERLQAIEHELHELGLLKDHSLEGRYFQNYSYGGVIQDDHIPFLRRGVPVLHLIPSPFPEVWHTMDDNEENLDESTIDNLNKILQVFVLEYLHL

IC50 (QPCTL) [nM] | efflux ratio [1] | Papp A→B [1] [×10⁻⁶ cm/s] | IC50 [2] [nM] | IC50 (QPCT) [nM] | IC50 [3] [nM] | Structure (SMILES)
2 | 3.3 | 23 | 30 | 8 | 18 | Cn1cnnc1C1CCN(c2c(C#N)cc(Cl)cc2-c2ccc(F)nc2)CC1 [Example 16]
1 | 2.4 | 30 | 52 | 1 | 9 | CC(C)Oc1ccc(C#N)c(N2CCC(c3nncn3C)CC2)c1-c1ccc(F)nc1 [Example 10]
1 | 12.5 | 5.6 | 102 | 4 | 24 | COc1ccc(-c2ccc(F)nc2)c(N2CCC(c3nncn3C)CC2)c1C#N [Example 20]
1 | 10.5 | 2.1 | 17 | 1 | 39 | Cn1cnnc1C1(F)CCN(c2c(C#N)cc(C(F)(F)F)cc2-c2cnc3nc(C(F)(F)F)cn3c2)CC1 [Example 22]
1 | 6.7 | 5.7 | 8 | 1 | 9 | Cn1cnnc1C1(F)CCN(c2c(C#N)cc(C(F)(F)F)cc2-c2cnc3nn(C(F)(F)F)cc3c2)CC1 [Example 36]
5 | 39.1 | 1.1 | 324 | 25 | 280 | Cn1cnnc1C1CCN(c2c(C#N)cc(C#N)cc2-c2ccc(F)nc2)CC1 [Example 21]

More lines, now with the values behind:

Structure (SMILES) | IC50 (QPCTL) [nM] | efflux ratio [1] | Papp A→B [1] [×10⁻⁶ cm/s] | IC50 [2] [nM] | IC50 (QPCT) [nM] | IC50 [3] [nM]
Cn1cnnc1C1(F)CCN(c2c(C#N)cc(C(F)(F)F)cc2-c2ccc(F)nc2)CC1 [Example 4] | 2 | 1.3 | 40.5 | 17 | 4 | 12
Cn1cnnc1C1(F)CCN(c2c(C#N)cc(C(F)(F)F)cc2-c2ccnnc2)CC1 [Example 5] | 2 | 10.3 | 3.3 | 19 | 3 | 21
Cn1cnnc1C1CCN(c2c(C#N)cc(F)cc2-c2ccc(F)nc2)CC1 [Example 7] | 2 | 2.1 | 24 | 48 | 10 | 18
COc1ccc(C#N)c(N2CCC(F)(c3nncn3C)CC2)c1-c1ccc(F)nc1 [Example 9] | 1 | 1.9 | 28 | 35 | 1 | 6
